Series [1] has as its system PANK2 silenced human neuroblastoma IMR32 cells (PANK2−/−). Nature of the series: Coenzyme A assay in PANK2 silenced cells (LC-MS quantification of free CoA). The settings on record: compound added twice (24 h + 24 h), relative to 0.1% DMSO controls. Type of series: cell-based. An outline of the steps:
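PANK2 shRNA-silenced IMR32 neuroblastoma cells were treated with compound (0.1% DMSO) for 24 h, then re-dosed with fresh compound for a further 24 h at 37 °C. TFA extracts of 1×10^6 cells were assayed for free CoA by LC-MS/MS (MRM 768.1→261.6/136.1). Results are given as fold change versus DMSO controls.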

Series [2] can be described thus: Stability in mouse plasma. The series is classed as in vitro ADME. The conditions noted are these: for t1/2, Mouse Plasma, Diastereoisomer B: 3 µM. An outline of the steps:
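Test compound at 3 μM (0.1% DMSO) was incubated in mouse or human plasma at 37 °C and sampled in duplicate at 0, 10, 20, 30, 40 and 60 min. Reactions were stopped with acetonitrile/formic acid containing internal standard. Remaining parent was measured by UPLC-MS/MS without a calibration curve.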

Series [3] can be described thus: Stability in mouse hepatocytes. Type of series: in vitro ADME.
Series [4] can be described thus: Stability in human hepatocytes. Type of series: in vitro ADME. The settings on record: for half-life at 5 µM: t1/2, Human Hepatocytes.
Where [5] appears, read: t1/2, Mouse Hepatocytes, Diastereoisomer A.
[6] abbreviates: t1/2, Mouse Hepatocytes, Diastereoisomer B.

Read-outs that look alike come from different tables or passages of the source. Where only a bound is given, the exact number is not on record here.

`COC(=O)CCNC(=O)[C@@H]1OP(=O)(NCCN2CCCC2)OCC1(C)C` (stereo partly drawn) [compound 109, methyl 3-((4R)-5,5-dimethyl-2-oxido-2-((2-(pyrrolidin-1-yl)ethyl)amino)-1,3,2-dioxaphosphinane-4-carboxamido)propanoate]: the “PANK2−/− CoA (Fold Increase): fold increase in Coenzyme A (CoA) levels relative to controls” value in series [1] is recorded as 1.87 Fold Increase. In addition, the half-life at 3 µM in series [2] (Diastereoisomer A (upfield shift in 31P NMR), 3 μM, 37° C., mouse plasma, read-out: t1/2, Mouse Plasma, Diastereoisomer A) is below 9.6 min. In addition, in series [3] (Diastereoisomer A (upfield shift in 31P NMR), 5 μM, 1 million cells/ml, 37° C., mouse hepatocytes, read-out: t1/2, Mouse Hepatocytes, Diastereoisomer A (converted)), the half-life at 5 µM is 203 min. Besides, in series [4] (Diastereoisomer A (upfield shift in 31P NMR), 5 μM, 1 million cells/ml, 37° C., human hepatocytes, read-out: t1/2, Human Hepatocytes, Diastereoisomer A (converted)), the half-life was above 240 min.
As to `COC(=O)CCNC(=O)[C@@H]1OP(=O)(N[C@@H](C)C(=O)OCc2cc(C)cc(C)c2)OCC1(C)C` (stereo partly drawn) [compound 3, (2S)-3,5-dimethylbenzyl 2-(((4R)-4-((3-methoxy-3-oxopropyl)carbamoyl)-5,5-dimethyl-2-oxido-1,3,2-dioxaphosphinan-2-yl)amino)propanoate], the “PANK2−/− CoA (Fold Increase): fold increase in Coenzyme A (CoA) levels relative to controls” value in series [1] worked out at 1.65 Fold Increase. For the same molecule, in series [2] (mouse, plasma), the half-life at 3 µM was below 9.6 min. The “t1/2, Mouse Plasma, Diastereoisomer B” value in series [2] (mouse, plasma) was below 9.6 min. In addition, the half-life at 5 µM in series [3] (setting [5]), in series [3] (setting [6]), in series [4] (Diastereoisomer A) and in series [4] (Diastereoisomer B) was below 15 min throughout.
Regarding `COC(=O)CCNC(=O)[C@@H]1OP(=O)(OCCSC(=O)C(C)(C)C)OCC1(C)C` (stereo partly drawn) [Compound No. 2-133, Methyl 3-((4R)-5,5-dimethyl-2-oxido-2-(2-(pivaloylthio)ethoxy)-1,3,2-dioxaphosphinane-4-carboxamido)propanoate], in series [1], the “PANK2−/− CoA (Fold Increase): fold increase in Coenzyme A (CoA) levels relative to controls” value worked out at 89.53 Fold Increase. Further, the half-life at 5 µM in series [3] (setting [5]), in series [3] (setting [6]), in series [4] (Diastereoisomer A) and in series [4] (Diastereoisomer B) was below 15 min in each case.
As to `COC(=O)CCNC(=O)[C@@H]1OP(=O)(OCOC(=O)OC(C)C)OCC1(C)C` (stereo partly drawn) [Compound No. 69, Methyl 3-((4R)-2-(((isopropoxycarbonyl)oxy)methoxy)-5,5-dimethyl-2-oxido-1,3,2-dioxaphosphinane-4-carboxamido)propanoate], in series [1], the “PANK2−/− CoA (Fold Increase): fold increase in Coenzyme A (CoA) levels relative to controls” value turned out to be 181.1 Fold Increase. The molecule further came in with a half-life at 3 µM in series [2] (mouse, plasma) below 9.6 min. Further, the “t1/2, Mouse Plasma, Diastereoisomer B” value in series [2] (mouse, plasma) is below 9.6 min. For the same molecule, the half-life at 5 µM in series [3] (setting [5]), in series [3] (setting [6]), in series [4] (Diastereoisomer A) and in series [4] (Diastereoisomer B) was below 15 min in each case.
As for `COC(=O)[C@H](C)NP1(=O)OCC(C)(C)[C@H](C(=O)NCCC(=O)OCc2ccncc2)O1` (stereo partly drawn) [compound 20, (2S)-methyl 2-(((4R)-5,5-dimethyl-2-oxido-4-((3-oxo-3-(pyridin-4-ylmethoxy)propyl)carbamoyl)-1,3,2-dioxaphosphinan-2-yl)amino)propanoate], the “PANK2−/− CoA (Fold Increase): fold increase in Coenzyme A (CoA) levels relative to controls” value in series [1] turned out to be 0.9 Fold Increase. For the same molecule, the half-life at 3 µM in series [2] (mouse, plasma) is below 9.6 min. Further, the “t1/2, Mouse Plasma, Diastereoisomer B” value in series [2] (mouse, plasma) was below 9.6 min. Further, the half-life at 5 µM in series [3] (setting [5]) was below 15 min; in series [3] (setting [6]), below 15 min; in series [4] (Diastereoisomer A), 142 min; in series [4] (Diastereoisomer B), 65.4 min.
For `COC(=O)CCNC(=O)[C@@H]1OP(=O)(OCOC(=O)C(C)(C)C)OCC1(C)C` (stereo partly drawn) [Compound No. 65, (((4R)-4-((3-methoxy-3-oxopropyl)carbamoyl)-5,5-dimethyl-2-oxido-1,3,2-dioxaphosphinan-2-yl)oxy)methyl pivalate], the “PANK2−/− CoA (Fold Increase): fold increase in Coenzyme A (CoA) levels relative to controls” value in series [1] was found to be 222.6 Fold Increase. For the same molecule, the half-life at 3 µM in series [2] (mouse, plasma) was below 9.6 min. For the same molecule, the “t1/2, Mouse Plasma, Diastereoisomer B” value in series [2] (mouse, plasma) was below 9.6 min. The half-life at 5 µM in series [3] (setting [5]), in series [3] (setting [6]), in series [4] (Diastereoisomer A) and in series [4] (Diastereoisomer B) was below 15 min in each case.
As to `COC(=O)CCNC(=O)[C@@H]1OP(=O)(N[C@@H](C)C(=O)OCCc2ccccc2)OCC1(C)C` (stereo partly drawn) [Compound No. 2, Methyl 3-((4R)-5,5-dimethyl-2-oxido-2-(((S)-1-oxo-1-phenethoxypropan-2-yl)amino)-1,3,2-dioxaphosphinane-4-carboxamido)propanoate], the “PANK2−/− CoA (Fold Increase): fold increase in Coenzyme A (CoA) levels relative to controls” value in series [1] is 6.80 Fold Increase. Further, the half-life at 3 µM in series [2] (mouse, plasma) is below 9.6 min. Further, the “t1/2, Mouse Plasma, Diastereoisomer B” value in series [2] (mouse, plasma) is below 9.6 min. Further, the half-life at 5 µM in series [3] (setting [5]) is 23.4 min; in series [3] (setting [6]) it was 26.4 min; in series [4] (Diastereoisomer A), below 15 min; in series [4] (Diastereoisomer B), below 15 min.
`CC(C)(C)C(=O)OCO[P@@]1(=O)OCC(C)(C)[C@H](C(=O)NCCC(=O)O)O1` [Compound No. 91, 3-((2S,4R)-5,5-dimethyl-2-oxido-2-((pivaloyloxy)methoxy)-1,3,2-dioxaphosphinane-4-carboxamido)propanoic acid]: in series [1], the “PANK2−/− CoA (Fold Increase): fold increase in Coenzyme A (CoA) levels relative to controls” value is recorded as 4.03 Fold Increase. Besides, the half-life at 3 µM in series [2] (mouse, plasma) is 30.6 min. Besides, the half-life at 5 µM is 18 min in series [3] (setting [5]) and 67.2 min in series [4] (Diastereoisomer A).
In the case of `COC(=O)CCNC(=O)[C@@H]1OP(=O)(OCOC(=O)c2ccccc2)OCC1(C)C` (stereo partly drawn) [Compound No. 64, (((4R)-4-((3-methoxy-3-oxopropyl)carbamoyl)-5,5-dimethyl-2-oxido-1,3,2-dioxaphosphinan-2-yl)oxy)methyl benzoate], the “PANK2−/− CoA (Fold Increase): fold increase in Coenzyme A (CoA) levels relative to controls” value in series [1] amounted to 278.1 Fold Increase. For the same molecule, the half-life at 3 µM in series [2] (mouse, plasma) is below 9.6 min. Besides, in series [2] (mouse, plasma), the “t1/2, Mouse Plasma, Diastereoisomer B” value was below 9.6 min. For the same molecule, the half-life at 5 µM in series [3] (setting [5]), in series [3] (setting [6]), in series [4] (Diastereoisomer A) and in series [4] (Diastereoisomer B) was below 15 min each time.
For `COC(=O)CCNC(=O)[C@@H]1OP(=O)(OCOC(=O)c2cncs2)OCC1(C)C` (stereo partly drawn) [Compound No. 70, (((4R)-4-((3-methoxy-3-oxopropyl)carbamoyl)-5,5-dimethyl-2-oxido-1,3,2-dioxaphosphinan-2-yl)oxy)methyl thiazole-5-carboxylate], the “PANK2−/− CoA (Fold Increase): fold increase in Coenzyme A (CoA) levels relative to controls” value in series [1] stood at 87.75 Fold Increase. In series [2] (mouse, plasma), the half-life at 3 µM is below 9.6 min and the “t1/2, Mouse Plasma, Diastereoisomer B” value is below 9.6 min.
For `CCc1cc(C(=O)OCOP2(=O)OCC(C)(C)[C@H](C(=O)NCCC(=O)OC)O2)n(C)n1` (stereo partly drawn) [Compound No. 84, (((4R)-4-((3-methoxy-3-oxopropyl)carbamoyl)-5,5-dimethyl-2-oxido-1,3,2-dioxaphosphinan-2-yl)oxy)methyl 3-ethyl-1-methyl-1H-pyrazole-5-carboxylate], the “PANK2−/− CoA (Fold Increase): fold increase in Coenzyme A (CoA) levels relative to controls” value in series [1] was determined as 325.47 Fold Increase. This molecule also came in with a half-life at 3 µM in series [2] (mouse, plasma) below 9.6 min. In series [2] (mouse, plasma), the “t1/2, Mouse Plasma, Diastereoisomer B” value was below 9.6 min. Further, the half-life at 5 µM in series [3] (setting [5]), in series [3] (setting [6]), in series [4] (Diastereoisomer A) and in series [4] (Diastereoisomer B) was below 15 min throughout.
Take `COC(=O)CCNC(=O)[C@@H]1OP(=O)(N[C@@H](C)C(=O)OCc2cccnc2)OCC1(C)C` (stereo partly drawn) [compound 24, methyl 3-((4R)-5,5-dimethyl-2-oxido-2-(((S)-1-oxo-1-(pyridin-3-ylmethoxy)propan-2-yl)amino)-1,3,2-dioxaphosphinane-4-carboxamido)propanoate]: the “PANK2−/− CoA (Fold Increase): fold increase in Coenzyme A (CoA) levels relative to controls” value in series [1] was determined as 0.92 Fold Increase. Besides, the half-life at 3 µM in series [2] (mouse, plasma) was below 9.6 min. Further, the “t1/2, Mouse Plasma, Diastereoisomer B” value in series [2] (mouse, plasma) is below 9.6 min. Further, the half-life at 5 µM in series [3] (setting [5]) was below 15 min; in series [3] (setting [6]), below 15 min; in series [4] (Diastereoisomer A), above 240 min; in series [4] (Diastereoisomer B), 191 min.
With `COC(=O)CCNC(=O)[C@@H]1OP(=O)(N[C@@H](C)C(=O)OCc2ccccc2)OCC1(C)C` (stereo partly drawn) [Compound No. 11, Benzyl ((4R)-4-((3-methoxy-3-oxopropyl)carbamoyl)-5,5-dimethyl-2-oxido-1,3,2-dioxaphosphinan-2-yl)-L-alaninate], the “PANK2−/− CoA (Fold Increase): fold increase in Coenzyme A (CoA) levels relative to controls” value in series [1] came out at 0.99 Fold Increase. The half-life at 5 µM is below 15 min in series [3] (setting [5]), below 15 min in series [3] (setting [6]), 27.6 min in series [4] (Diastereoisomer A) and below 15 min in series [4] (Diastereoisomer B).
As for `CC1(C)COP(=O)(O)O[C@H]1C(=O)NCCC(=O)O` [compound 108, 3-((4R)-2-hydroxy-5,5-dimethyl-2-oxido-1,3,2-dioxaphosphinane-4-carboxamido)propanoic acid], the “PANK2−/− CoA (Fold Increase): fold increase in Coenzyme A (CoA) levels relative to controls” value in series [1] is 1.07 Fold Increase. The half-life at 5 µM in series [3] (setting [5]) and in series [4] (Diastereoisomer A) was 15 min in each case.
Consider `COC(=O)CCNC(=O)[C@@H]1OP(=O)(N[C@@H](Cc2ccccc2)C(=O)OCc2ccccc2)OCC1(C)C` (stereo partly drawn) [compound 10, benzyl ((4R)-4-((3-methoxy-3-oxopropyl)carbamoyl)-5,5-dimethyl-2-oxido-1,3,2-dioxaphosphinan-2-yl)-L-phenylalaninate], for which the “PANK2−/− CoA (Fold Increase): fold increase in Coenzyme A (CoA) levels relative to controls” value in series [1] worked out at 1.05 Fold Increase. The half-life at 5 µM in series [3] (setting [5]), in series [3] (setting [6]), in series [4] (Diastereoisomer A) and in series [4] (Diastereoisomer B) was below 15 min each time.

The record behind these values is patent US10364263B2, “Cyclic phosphates and cyclic phosphoramidates for the treatment of neurologic disorders” (Retrophin, Inc., priority 2015, dated 2019).
